Laboratory results taken from patent US20260297060A1, “COMPOUNDS FOR THE DEGRADATION OF MUTANT BRAF” (C4 THERAPEUTICS, INC., priority 2023, published 2026).
Where two headings read alike, the source gives them in different places.

How the values were obtained:
A375-NRAS^Q61K cells = test: CTGlo Cell Viability Assay, A375-NRAS^Q61K (A375.11) cells, 96 hours; assay type: cell-based, human; settings: A375.11 (A375-NRAS^Q61K) cells; for Emax / CTGlo A375.11 96 hours Emax: lowest % viability achieved
How it was run: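 Viability as CellTiter-Glo ATP luminescence after 96 h compound exposure at 37 °C; A375.11 (BRAF V600E/NRAS Q61K) cells at 250/well, top final concentration 10 μM in half-log steps. Signal was background-corrected and set relative to DMSO controls. A 4-parameter logistic fit gave GI50 (50% crossing) and Emax.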

BRAF V600E = biological target: T1, BRAF V600E (Homo sapiens, UniProt P15056+Q96SW2, V600E); test: BRAF V600E HiBiT Degradation Assay; assay type: cell-based; settings: A375.10 cells, BRAF V600E
T1 construct: knock-in of the HiBiT tag to the endogenous BRAF V600E locus; host or cells: A375.10 (A375 clonal line, CRISPR HiBiT knock-in at the endogenous BRAF V600E locus)
T1 sequence (P15056 whole entry V600E): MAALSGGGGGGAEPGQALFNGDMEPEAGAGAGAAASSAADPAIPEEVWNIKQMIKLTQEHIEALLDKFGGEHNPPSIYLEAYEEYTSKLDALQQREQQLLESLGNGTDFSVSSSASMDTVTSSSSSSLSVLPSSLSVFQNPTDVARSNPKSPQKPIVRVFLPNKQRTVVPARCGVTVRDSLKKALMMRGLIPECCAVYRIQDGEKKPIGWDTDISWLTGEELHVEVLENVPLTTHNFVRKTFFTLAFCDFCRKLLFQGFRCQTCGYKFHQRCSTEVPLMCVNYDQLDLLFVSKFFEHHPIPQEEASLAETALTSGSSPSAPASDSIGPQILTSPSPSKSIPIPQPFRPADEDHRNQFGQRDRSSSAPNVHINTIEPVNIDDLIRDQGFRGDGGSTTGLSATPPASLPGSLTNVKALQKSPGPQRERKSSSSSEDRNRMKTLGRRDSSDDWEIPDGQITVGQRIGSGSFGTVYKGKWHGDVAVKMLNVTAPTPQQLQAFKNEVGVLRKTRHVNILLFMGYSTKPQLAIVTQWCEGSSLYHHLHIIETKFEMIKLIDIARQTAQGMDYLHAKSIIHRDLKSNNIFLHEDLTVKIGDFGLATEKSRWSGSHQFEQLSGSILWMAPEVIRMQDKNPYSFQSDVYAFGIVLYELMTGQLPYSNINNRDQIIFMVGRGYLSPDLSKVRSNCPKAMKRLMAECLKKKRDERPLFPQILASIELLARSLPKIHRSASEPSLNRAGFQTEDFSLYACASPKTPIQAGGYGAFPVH
T1 sequence (Q96SW2 whole entry): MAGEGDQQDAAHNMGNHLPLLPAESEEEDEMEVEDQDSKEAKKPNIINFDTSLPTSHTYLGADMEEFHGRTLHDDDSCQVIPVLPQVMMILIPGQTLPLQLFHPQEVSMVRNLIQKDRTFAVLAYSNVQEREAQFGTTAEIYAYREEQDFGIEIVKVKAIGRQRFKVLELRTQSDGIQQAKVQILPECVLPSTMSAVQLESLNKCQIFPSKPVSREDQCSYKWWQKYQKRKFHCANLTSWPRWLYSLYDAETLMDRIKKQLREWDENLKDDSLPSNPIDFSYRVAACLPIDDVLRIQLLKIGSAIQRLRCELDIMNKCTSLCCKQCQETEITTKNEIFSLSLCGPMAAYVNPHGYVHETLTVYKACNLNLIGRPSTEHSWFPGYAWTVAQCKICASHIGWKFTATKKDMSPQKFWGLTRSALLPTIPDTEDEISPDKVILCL
T1 sequence (Q16531 whole entry partner): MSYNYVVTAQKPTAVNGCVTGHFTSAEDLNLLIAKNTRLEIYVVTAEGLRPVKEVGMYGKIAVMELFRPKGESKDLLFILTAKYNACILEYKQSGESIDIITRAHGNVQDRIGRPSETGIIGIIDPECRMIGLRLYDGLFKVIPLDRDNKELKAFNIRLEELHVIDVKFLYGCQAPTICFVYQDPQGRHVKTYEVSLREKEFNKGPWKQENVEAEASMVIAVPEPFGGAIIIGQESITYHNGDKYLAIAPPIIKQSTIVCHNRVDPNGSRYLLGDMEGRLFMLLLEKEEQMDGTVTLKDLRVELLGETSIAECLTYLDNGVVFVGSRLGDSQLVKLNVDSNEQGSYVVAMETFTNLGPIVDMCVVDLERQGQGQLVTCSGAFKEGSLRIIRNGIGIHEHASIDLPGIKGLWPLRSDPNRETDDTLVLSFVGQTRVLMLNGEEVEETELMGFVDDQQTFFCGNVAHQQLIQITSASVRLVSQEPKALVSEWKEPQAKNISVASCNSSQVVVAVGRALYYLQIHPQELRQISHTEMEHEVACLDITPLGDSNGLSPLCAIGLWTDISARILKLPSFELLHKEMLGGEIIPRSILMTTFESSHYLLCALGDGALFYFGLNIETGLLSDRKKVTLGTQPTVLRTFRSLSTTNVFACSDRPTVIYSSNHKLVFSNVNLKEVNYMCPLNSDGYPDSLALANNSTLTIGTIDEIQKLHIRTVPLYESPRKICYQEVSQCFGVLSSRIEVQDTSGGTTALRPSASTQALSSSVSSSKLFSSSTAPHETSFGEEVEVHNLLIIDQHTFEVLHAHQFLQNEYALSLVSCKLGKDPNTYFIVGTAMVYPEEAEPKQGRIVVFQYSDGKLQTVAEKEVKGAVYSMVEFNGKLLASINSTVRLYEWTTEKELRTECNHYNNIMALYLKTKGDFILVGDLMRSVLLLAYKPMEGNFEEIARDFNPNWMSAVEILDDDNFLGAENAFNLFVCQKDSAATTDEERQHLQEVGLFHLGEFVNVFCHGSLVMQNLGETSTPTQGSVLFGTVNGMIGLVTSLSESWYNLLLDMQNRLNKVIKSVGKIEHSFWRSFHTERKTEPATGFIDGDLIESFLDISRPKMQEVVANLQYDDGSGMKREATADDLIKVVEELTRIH
How it was run: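 Endogenous HiBiT knock-in on BRAF V600E in A375 cells (clone A375.10); 11-point half-log series, top 10 μM, 2, 6 or 24 h at 37° C. Lytic HiBiT luminescence, background-subtracted, normalized to DMSO; 4-parameter fit gives DC50, Emax (residual protein) and IP (inflection point).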

[1] = 2 hours, inflection point, read-out: HiBiT-Degradation A375.10 BRAF 2 hours IP
[2] = 2 hours, read-out: HiBiT-Degradation A375.10 BRAF 2 hours DC50
[3] = 2 hours, residual protein remaining, read-out: HiBiT-Degradation A375.10 BRAF 2 hours Emax
[4] = 2 hours, residual protein remaining
[5] = HiBiT, 24 hours, read-out: HiBiT-Degradation A375.10 BRAF 24 hours DC50
[6] = HiBiT, 24 hours, read-out: HiBiT-Degradation A375.10 BRAF 24 hours Emax
[7] = HiBiT, 24 hours, read-out: HiBiT-Degradation A375.10 BRAF 24 hours IP

GI50 (A375-NRAS^Q61K cells; Homo sapiens, 96 h) [µM]	DC50 (BRAF V600E; [1]) [µM]	DC50 (BRAF V600E; [2]) [µM]	Emax (BRAF V600E; [3]) [%]	GI50 (A375-NRAS^Q61K cells) [µM]	HiBiT-Degradation A375.10 BRAF 2 hours Emax (BRAF V600E; [4])	HiBiT-Degradation A375.10 BRAF 24 hours Emax (BRAF V600E; HiBiT, 24 hours)	DC50 (BRAF V600E; [5]) [µM]	Emax (BRAF V600E; [6]) [%]	DC50 (BRAF V600E; [7]) [µM]	Compound	Emax (A375-NRAS^Q61K cells; Homo sapiens, 96 h) [%]	CTGlo A375.11 96 hours Emax (A375-NRAS^Q61K cells)
< 1	< 1	> 10	50 to 90							CCN(C)S(=O)(=O)Nc1ccc(F)c(Oc2ccc3ncc(OC4CC5(C4)CN(C4CCC(c6cc7c(cc6F)c(N6CCC(=O)NC6=O)nn7C)CC4)C5)nc3c2)c1C#N (single isomer, unassigned) [Compound 281, 7-[2-cyano-3-[[ethyl(methyl)sulfamoyl]amino]-6-fluoro-phenoxy]-2-[[2-[4-[3-(2,4-dioxohexahydropyrimidin-1-yl)-5-fluoro-1-methyl-indazol-6-yl]cyclohexyl]-2-azaspiro[3.3]heptan-6-yl]oxy]quinoxaline]	< 50	
	< 1	< 1		< 1	** (<90% and >50%)					CCN(C)S(=O)(=O)Nc1ccc(F)c(Oc2ccc3ncc(OC4CC5(C4)CN(C4CCC(c6cc7c(cc6F)c(N6CCC(=O)NC6=O)nn7C)CC4)C5)nc3c2)c1C#N (single isomer, unassigned) [Compound 282, 7-[2-cyano-3-[[ethyl(methyl)sulfamoyl]amino]-6-fluoro-phenoxy]-2-[[2-[4-[3-(2,4-dioxohexahydropyrimidin-1-yl)-5-fluoro-1-methyl-indazol-6-yl]cyclohexyl]-2-azaspiro[3.3]heptan-6-yl]oxy]quinoxaline]		*** (<=50%)
< 1	< 1	< 1	< 50							CO[C@@H]1CCN(S(=O)(=O)Nc2ccc(F)c(Oc3ccc4ncc(C5CC6(CCN(C7CCC(c8cc9c(cc8F)c(N8CCC(=O)NC8=O)nn9C)CC7)CC6)C5)nc4c3)c2C#N)C1 (single isomer, unassigned) [Compound 284]	< 50	
		< 1		< 1						CO[C@@H]1CCN(S(=O)(=O)Nc2ccc(F)c(Oc3ccc4ncc(C5CC6(CCN(C7CCC(c8cc9c(cc8F)c(N8CCC(=O)NC8=O)nn9C)CC7)CC6)C5)nc4c3)c2C#N)C1 (single isomer, unassigned) [Compound 285]		
< 1	< 1	< 1	< 50			*** (<=50%)				CCN(C)S(=O)(=O)Nc1ccc(F)c(Oc2ccc3ncn([C@@H]4CO[C@@]5(CCN(C6CCC(c7cc8c(cc7F)c(N7CCC(=O)NC7=O)nn8C)CC6)C5)C4)c(=O)c3c2)c1C#N (single isomer, unassigned) [Compound 286]	< 50	
				< 1	*** (<=50%)		< 1	< 50	< 1	CCN(C)S(=O)(=O)Nc1ccc(F)c(Oc2ccc3ncn([C@@H]4CO[C@@]5(CCN(C6CCC(c7cc8c(cc7F)c(N7CCC(=O)NC7=O)nn8C)CC6)C5)C4)c(=O)c3c2)c1C#N (single isomer, unassigned) [Compound 287]		*** (<=50%)
	< 1	1 to 10	50 to 90	> 10						CCN(C)S(=O)(=O)Nc1ccc(F)c(Oc2ccc3ncn([C@H]4CO[C@]5(CCN(C6CCC(c7cc8c(cc7F)c(N7CCC(=O)NC7=O)nn8C)CC6)C5)C4)c(=O)c3c2)c1C#N (single isomer, unassigned) [Compound 288]	50 to 90	
	< 1	< 1		< 1	*** (<=50%)		< 1	< 50	< 1	CCN(C)S(=O)(=O)Nc1ccc(F)c(Oc2ccc3ncn([C@H]4CO[C@]5(CCN(C6CCC(c7cc8c(cc7F)c(N7CCC(=O)NC7=O)nn8C)CC6)C5)C4)c(=O)c3c2)c1C#N (single isomer, unassigned) [Compound 289]		*** (<=50%)
	< 1	1 to 10	50 to 90	> 10						CCN(C)S(=O)(=O)Nc1ccc(F)c(Oc2ccc3ncn([C@@H]4CO[C@]5(CCN(C6CCC(c7cc8c(cc7F)c(N7CCC(=O)NC7=O)nn8C)CC6)C5)C4)c(=O)c3c2)c1C#N (single isomer, unassigned) [Compound 290]		** (<90% and >50%)
	< 1	> 10		1 to 10	** (<90% and >50%)					CCN(C)S(=O)(=O)Nc1ccc(F)c(Oc2ccc3ncn([C@@H]4CO[C@]5(CCN(C6CCC(c7cc8c(cc7F)c(N7CCC(=O)NC7=O)nn8C)CC6)C5)C4)c(=O)c3c2)c1C#N (single isomer, unassigned) [Compound 291]		* (>=90%)
< 1	< 1	< 1	< 50				< 1	< 50	< 1	CCN(C)S(=O)(=O)Nc1ccc(F)c(Oc2ccc3ncn([C@H]4CO[C@@]5(CCN(C6CCC(c7cc8c(cc7F)c(N7CCC(=O)NC7=O)nn8C)CC6)C5)C4)c(=O)c3c2)c1C#N (single isomer, unassigned) [Compound 292]	50 to 90	
		< 1		< 1	*** (<=50%)					CCN(C)S(=O)(=O)Nc1ccc(F)c(Oc2ccc3ncn([C@H]4CO[C@@]5(CCN(C6CCC(c7cc8c(cc7F)c(N7CCC(=O)NC7=O)nn8C)CC6)C5)C4)c(=O)c3c2)c1C#N (single isomer, unassigned) [Compound 293]		** (<90% and >50%)
1 to 10	< 1	< 1	50 to 90							CN(CCO)S(=O)(=O)Nc1ccc(F)c(Oc2ccc3ncc(C4CC5(CCN(C6CCC(c7cc8c(cc7F)c(N7CCC(=O)NC7=O)nn8C)CC6)CC5)C4)nc3c2)c1C#N (single isomer, unassigned) [Compound 294, 7-[2-cyano-6-fluoro-3-[[2-hydroxyethyl(methyl)sulfamoyl]amino]phenoxy]-2-[7-[4-[3-(2,4-dioxohexahydropyrimidin-1-yl)-5-fluoro-1-methyl-indazol-6-yl]cyclohexyl]-7-azaspiro[3.5]nonan-2-yl]quinoxaline]		** (<90% and >50%)
	< 1	< 1		1 to 10	** (<90% and >50%)					CN(CCO)S(=O)(=O)Nc1ccc(F)c(Oc2ccc3ncc(C4CC5(CCN(C6CCC(c7cc8c(cc7F)c(N7CCC(=O)NC7=O)nn8C)CC6)CC5)C4)nc3c2)c1C#N (single isomer, unassigned) [Compound 295, 7-[2-cyano-6-fluoro-3-[[2-hydroxyethyl(methyl)sulfamoyl]amino]phenoxy]-2-[7-[4-[3-(2,4-dioxohexahydropyrimidin-1-yl)-5-fluoro-1-methyl-indazol-6-yl]cyclohexyl]-7-azaspiro[3.5]nonan-2-yl]quinoxaline]		* (>=90%)
1 to 10	< 1	1 to 10	50 to 90				< 1	< 50	< 1	CCN(C)S(=O)(=O)Nc1ccc(F)c(Oc2ccc3ncc(C4CC5(C4)CN(C4CCC(c6cc7c(cc6F)c(N6CCC(=O)NC6=O)nn7C)CC4)C5)nc3c2)c1C#N (single isomer, unassigned) [Compound 297, 7-[2-cyano-3-[[ethyl(methyl)sulfamoyl]amino]-6-fluoro-phenoxy]-2-[2-[4-[3-(2,4-dioxohexahydropyrimidin-1-yl)-5-fluoro-1-methyl-indazol-6-yl]cyclohexyl]-2-azaspiro[3.3]heptan-6-yl]quinoxaline]	50 to 90	
	< 1	< 1		< 1	*** (<=50%)	*** (<=50%)	< 1		< 1	CCN(C)S(=O)(=O)Nc1ccc(F)c(Oc2ccc3ncc(C4CC5(C4)CN(C4CCC(c6cc7c(cc6F)c(N6CCC(=O)NC6=O)nn7C)CC4)C5)nc3c2)c1C#N (single isomer, unassigned) [Compound 298, 7-[2-cyano-3-[[ethyl(methyl)sulfamoyl]amino]-6-fluoro-phenoxy]-2-[2-[4-[3-(2,4-dioxohexahydropyrimidin-1-yl)-5-fluoro-1-methyl-indazol-6-yl]cyclohexyl]-2-azaspiro[3.3]heptan-6-yl]quinoxaline]		*** (<=50%)
